Values quoted from earlier work in patent US7622592B2, “Carbonylamino-benzimidazole derivatives as androgen receptor modulators” (Merck & Co., Inc., priority 2002, dated 2009).

Conditions: after 7 years of treatment

## NCCCC(O)(P(=O)(O)O)P(=O)(O)O [alendronate, 4-amino-1-hydroxybutylidene-1,1-bisphosphonic acid]
  increase in spinal BMD: 11
